ChEMBL document CHEMBL1152573, “Synthesis and glycogen phosphorylase inhibitory activity of N-(beta-D-glucopyranosyl)amides possessing 1,4-benzodioxane moiety” (Bioorg Med Chem, 2009)

Columns and labels:
[1] = target: T1, Glycogen phosphorylase, muscle form (Oryctolagus cuniculus, UniProt P00489); assay: Inhibition of rabbit muscle glycogen phosphorylase b
T1 sequence (P00489 whole entry): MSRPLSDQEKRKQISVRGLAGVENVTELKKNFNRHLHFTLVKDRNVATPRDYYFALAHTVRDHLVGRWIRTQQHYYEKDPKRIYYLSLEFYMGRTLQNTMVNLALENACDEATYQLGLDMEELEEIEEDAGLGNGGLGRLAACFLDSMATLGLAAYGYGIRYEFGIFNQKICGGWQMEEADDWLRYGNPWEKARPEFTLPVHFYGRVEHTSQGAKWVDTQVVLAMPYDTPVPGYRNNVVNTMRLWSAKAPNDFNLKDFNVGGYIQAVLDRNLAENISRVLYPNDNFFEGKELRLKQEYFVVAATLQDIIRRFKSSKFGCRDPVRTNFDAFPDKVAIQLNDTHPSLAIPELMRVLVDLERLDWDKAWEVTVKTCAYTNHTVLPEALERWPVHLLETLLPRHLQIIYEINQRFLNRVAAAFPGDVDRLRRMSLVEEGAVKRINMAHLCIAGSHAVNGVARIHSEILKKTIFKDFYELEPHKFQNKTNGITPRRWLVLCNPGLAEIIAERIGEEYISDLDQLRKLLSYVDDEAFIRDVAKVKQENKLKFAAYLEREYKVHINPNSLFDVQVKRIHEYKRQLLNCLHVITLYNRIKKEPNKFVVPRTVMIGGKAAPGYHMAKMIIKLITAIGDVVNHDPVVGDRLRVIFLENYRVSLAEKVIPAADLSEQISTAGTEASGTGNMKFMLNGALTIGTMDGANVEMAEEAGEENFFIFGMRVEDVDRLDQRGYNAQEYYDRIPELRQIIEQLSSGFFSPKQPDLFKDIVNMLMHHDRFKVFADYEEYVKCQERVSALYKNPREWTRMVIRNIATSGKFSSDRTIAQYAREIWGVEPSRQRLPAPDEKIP

[2] = target: T1, Glycogen phosphorylase, muscle form; assay: Inhibition of rabbit muscle glycogen phosphorylase b by cheng-prusoff equation

IC50 [1] | Ki [2] | Compound
670 µM | 268 µM | O=C(N[C@@H]1O[C@H](CO)[C@@H](O)[C@H](O)[C@H]1O)c1cc(Br)c2c(c1)OCCO2
580 µM | 232 µM | COc1cc(C(=O)N[C@@H]2O[C@H](CO)[C@@H](O)[C@H](O)[C@H]2O)cc2c1OCCO2
300 µM | 120 µM | O=C(N[C@@H]1O[C@H](CO)[C@@H](O)[C@H](O)[C@H]1O)[C@@H]1COc2ccccc2O1
320 µM | 128 µM | O=C(N[C@@H]1O[C@H](CO)[C@@H](O)[C@H](O)[C@H]1O)[C@H]1COc2ccccc2O1
125 µM | 85 µM | O=C(N[C@@H]1O[C@H](CO)[C@@H](O)[C@H](O)[C@H]1O)C1=COc2ccccc2O1
630 µM | 252 µM | O=C(N[C@@H]1O[C@H](CO)[C@@H](O)[C@H](O)[C@H]1O)c1ccc2c(c1)OCCO2
